Data published in PubChem BioAssay AID624281 (Broad Institute, 2012).
Calls of active or inactive are those of the source. The rule behind the calls is not given here.

What was measured:
[1] = Confirmatory dose response, inducers of lux bioluminescence, V. cholerae DH231 δcqsS δluxS (AID 624281); conditions: V. cholerae DH231 (ΔcqsS ΔluxS) lux bioluminescence, 6 h; at 35 µM (top of the series)
[2] = test system: V. cholerae DH231 (ΔcqsS ΔluxS) lux bioluminescence, 6 h; assay: as above

Row | Compound | luminescence activation [1] | AC40 [2]
1 | COc1ccccc1NC(=O)COC(=O)c1ccc(C)cc1 | 8.61% (inactive) | 
2 | O=c1ncn(-c2cccc(Cl)c2)c2ccccc12 | 14.1% (inactive) | 
3 | O=C(Nc1nnc(-c2ccc3c(c2)OCCO3)o1)C1CCCCC1 |  | 883 nM
4 | Cc1ccc(CC(=O)NC2CCCC2)cc1 | 0.807% (inactive) | 
5 | COc1ccccc1NC(=O)COC(=O)c1oc2ccccc2c1C | -6.24% (inactive) | 
6 | CCn1nnnc1NCc1ccc(N2CCCC2)cc1 | -52.4% (inactive) | 
7 | O=C(Cc1ccc(-c2ccccc2)cc1)NC1CCCC1 | -8.42% (inactive) | 
8 | Cc1ccc2cc3c(NC(=O)c4ccco4)nn(C)c3nc2c1 |  | 2030 nM
9 | CCCn1nnnc1NCc1ccc(N(CC)CC)cc1 | -19.9% (inactive) | 
10 | COc1ccccc1NC(=O)COC(=O)c1cc2c(s1)CCC2 |  | > 35000 nM (inactive)
11 | Cc1c(Cl)cccc1-n1cnc(=O)c2ccccc21 | -4.11% (inactive) | 
12 | CCCn1nnnc1NCc1ccc(C(C)C)cc1 | -30.3% (inactive) | 
13 | CCn1c(CC(=O)Nc2cccc(Cl)c2Cl)nnc1SCCOc1ccc(OC)cc1 | -63.2% (inactive) | 
14 | Cc1ccc(OCCNC(=O)c2cccc(C)c2)cc1 | -33.1% (inactive) | 
15 | COc1ccc(Cl)cc1NC(=O)COC(=O)c1ccc(C)o1 | -3.04% (inactive) | 
16 | CCOc1ccc(Nc2ccc3nonc3c2[N+](=O)[O-])cc1 | -40.9% (inactive) | 
17 | CCn1nnc(NCc2ccc(C)cc2)n1 | 4.08% (inactive) | 
18 | CCCn1nnnc1NCc1ccc(N2CCCC2)cc1 | -14% (inactive) | 
19 | CCCn1nnnc1NCc1ccccc1Cl | -4.59% (inactive) | 
20 | CCC(C)NC(=O)Cc1ccc(-c2ccccc2)cc1 (stereo not given) | -15.3% (inactive) | 
